The text below walks through data of paper PMC8833187 (Proceedings of the National Academy of Sciences of the …, 2022).

In experiment [1] the test system is CaM/4Ca^2+. Nature of the experiment: Combined time-resolved DEER and ssNMR: binding pathway of M13 to CaM/4Ca^2+. Further details: species or system Human.
Experiment [2] has as its system CaM/4Ca^2+ with R1 labels at A17C–R1 and A128C–R1. The settings on record: labelled versus unlabelled CaM/4Ca^2+; cited from earlier work.

Some results are limits rather than exact numbers.

On to KRRWKKNFIAVSAANRFKKISSSGAL [M13], for which, in experiment [1], the “τ, conformational rearrangement of state B to state C” value fell in the range of 7 to 18 ms and the “τ, state A* to collapsed intermediate B” value is 1.5 to 2.5 ms. For the same sequence, the “timescale τ, state A converted to final compact complex state C” value in experiment [1] (abstract) is reported as not above 600 μs. In experiment [2], the “reduction of affinity for M13 by R1 labels at A17C–R1 and A128C–R1” value was “about 2.5 fold”.
